Experimental data published in patent US20250179047A1, “5-[7-(3,4-DIHYDRO-1H-ISOQUINOLINE-2-CARBONYL)-1,2,3,4 TETRAHYDROISOQUINOLIN-6-YL]-1H-PYRROLE-3-CARBOXAMIDE DERIVATIVES, PHARMACEUTICAL COMPOSITIONS CONTAINING THEM AND THEIR USES AS PRO-APOPTOTIC AGENTS” (LES LABORATOIRES SERVIER, priority 2022, published 2025).
Where two headings read alike, the source gives them in different places.

How the values were obtained:
[1] = molecular target: BCLXL WT (Homo sapiens (Human), UniProt Q07817); experiment: TR-FRET competitive binding assay, BCLXL WT; conditions: for Ki: BCLXL WT, Ki determined from IC50, read-out: TR_FRET EKI BclxL; for TR_FRET EKI BCLxL/WT selectivty ratio: ratio Ki BCLxL / Ki BCL2 WT; for TR_FRET EKI BCLxL/WT selectivty: ratio of Ki BCLxL to BCL2 WT
Sequence of BCLXL WT (Q07817 other isoform, or with tags, fused parts or gaps): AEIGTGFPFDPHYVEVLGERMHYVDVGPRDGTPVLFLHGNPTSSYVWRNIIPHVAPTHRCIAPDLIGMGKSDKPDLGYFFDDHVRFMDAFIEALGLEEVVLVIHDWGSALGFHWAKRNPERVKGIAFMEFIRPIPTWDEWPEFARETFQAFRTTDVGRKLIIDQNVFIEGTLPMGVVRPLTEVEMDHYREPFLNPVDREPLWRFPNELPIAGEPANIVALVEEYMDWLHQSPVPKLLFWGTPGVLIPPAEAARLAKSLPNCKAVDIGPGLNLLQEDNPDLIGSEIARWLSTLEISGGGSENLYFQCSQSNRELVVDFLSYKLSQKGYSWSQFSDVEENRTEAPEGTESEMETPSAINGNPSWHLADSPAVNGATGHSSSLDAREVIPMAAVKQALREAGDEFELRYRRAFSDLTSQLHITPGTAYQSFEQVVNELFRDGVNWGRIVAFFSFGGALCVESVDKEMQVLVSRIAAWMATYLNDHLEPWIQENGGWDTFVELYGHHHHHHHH
Procedure, shortened: (§1)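 Competitive TR-FRET displacement of fluorescein-PUMA peptide (2 or 20 nM) from 0.5 nM terbium-labelled N-terminal Halo-fusion BCL2 (1-207, wild type or mutant) or BCLXL (2-196), expressed in E. coli. Buffer 50 mM Hepes pH 7.5, 150 mM NaCl, 5% DMSO; 2 h at 23°C. 520/495 nm ratio fitted over 11 points for IC50, converted to Ki.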

[2] = molecular target: BCL2 D111A (Homo sapiens, UniProt P10415, D111A); experiment: TR-FRET competitive binding assay, BCL2 D111A; conditions: Ki determined from IC50, read-out: TR_FRET EKI_Bcl2 D111A
Procedure, shortened: as §1

[3] = molecular target: BCL2 WT (Homo sapiens (Human), UniProt P10415); experiment: TR-FRET competitive binding assay, BCL2 WT
Procedure, shortened: as §1

[4] = tested on: KMS-12-PE Bcl-2 G101V; experiment: In vitro cytotoxicity CellTiter-Glo 48 h, KMS-12-PE Bcl-2 G101V; format: cell-based; conditions: for Ratio (G101V/WT): C50 KMS-12-PE Bcl-2 G101V over C50 KMS-12-PE Bcl-2 WT; for IC50: Homo sapiens, KMS-12-PE, 48 h, CellTiter-Glo, C50 = concentration needed to reach 50% of the cellular viability
Procedure, shortened: (§2)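 Potency is expressed as C50, the compound concentration at which viability of engineered KMS-12-PE cells (Bcl-2 wild type or G101V) falls to 50%, determined from CellTiter-Glo luminescence after 48 h of treatment over 11 concentrations.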

[5] = tested on: BCL2 G101V; experiment: TR-FRET competitive binding assay, BCL2 G101V; set-up: species or system human; conditions: for TR_FRET EKI G101V/WT selectivty ratio: ratio Ki BCL2 G101V / Ki BCL2 WT; for TR_FRET EKI G101V/WT selectivty: ratio of Ki BCL2 G101V to BCL2 WT
Procedure, shortened: as §1

[6] = molecular target: BCL2 G101V (Homo sapiens, UniProt P10415, G101V); experiment: TR-FRET competitive binding assay, BCL2 G101V; conditions: BCL2 G101V; Ki determined from IC50; read-out: TR_FRET EKI_Bcl2 G101V
Procedure, shortened: as §1

[7] = tested on: KMS-12-PE Bcl-2 WT; experiment: In vitro cytotoxicity CellTiter-Glo 48 h, KMS-12-PE Bcl-2 WT; format: cell-based; conditions: Homo sapiens, KMS-12-PE, C50 = concentration needed to reach 50% of the cellular viability
Procedure, shortened: as §2

[8] = molecular target: BCL2 F104I (Homo sapiens, UniProt P10415, F104I); experiment: TR-FRET competitive binding assay, BCL2 F104I; conditions: Ki determined from IC50, read-out: TR_FRET EKI_Bcl2 F104I
Procedure, shortened: as §1

[9] = molecular target: BCL2 D103Y (Homo sapiens, UniProt P10415, D103Y); experiment: TR-FRET competitive binding assay, BCL2 D103Y; conditions: Ki determined from IC50, read-out: TR_FRET EKI_Bcl2 D103Y
Procedure, shortened: as §1

[10] = Ki determined from IC50, read-out: TR_FRET EKI_Bcl2 WT
[11] = Ki determined from IC50, read-out: TR_FRET EKI_Bcl2

Row | Ki [1] [nM] | TR_FRET EKI BCLxL/WT selectivty ratio [1] | Ki [2] [nM] | Ki [3, 10] [nM] | TR_FRET EKI G101V/WT selectivty ratio [5] | Ki [6] [nM] | Ki [8] [nM] | Ki [9] [nM] | TR_FRET EKI BCLxL/WT selectivty [1] | Ki [3, 11] [nM] | TR_FRET EKI G101V/WT selectivty [5] | Compound | Ratio (G101V/WT) [4] | IC50 [4] [µM] | IC50 [7] [µM]
1 | 7.7 | 64.2 | 0.38 | 0.12 | 5.4 | 0.7 | 0.49 | 0.37 | – | – | – | Cc1c(N(C(=O)c2cc(-c3cc4c(cc3C(=O)N3Cc5ccccc5C[C@H]3CN3CCC5(CC3)CC5)CN(C(=O)Cc3ccc(OCCN5CCOCC5)cc3F)CC4)n(C)c2C)c2ccc(O)cc2)cc(C#N)n1C [Example 126, 5-{7-[(3S)-3-({6-azaspiro[2.5]octan-6-yl}methyl)-1,2,3,4-tetrahydroisoquinoline-2-carbonyl]-2-(2-{2-fluoro-4-[2-(morpholin-4-yl)ethoxy]phenyl}acetyl)-1,2,3,4-tetrahydroisoquinolin-6-yl}-N-(5-cyano-1,2-dimethyl-1H-pyrrol-3-yl)-N-(4-hydroxyphenyl)-1,2-dimethyl-1H-pyrrole-3-carboxamide] | 6.34 | 0.0303 | 0.0048
2 | 2.6 | 45.6 | 0.17 | 0.06 | 5.8 | 0.3 | 0.33 | 0.18 | – | – | – | Cc1c(N(C(=O)c2cc(-c3cc4c(cc3C(=O)N3Cc5ccccc5C[C@H]3CN3CCCCC3)CN(C(=O)Cc3ccc(OCCN(C)CCF)cc3F)CC4)n(C)c2C)c2ccc(O)cc2)cc(C#N)n1C [Example 134, N-(5-cyano-1,2-dimethyl-1H-pyrrol-3-yl)-5-{2-[2-(2-fluoro-4-{2-[(2-fluoroethyl)(methyl)amino]ethoxy}phenyl)acetyl]-7-[(3S)-3-[(piperidin-1-yl)methyl]-1,2,3,4-tetrahydroisoquinoline-2-carbonyl]-1,2,3,4-tetrahydroisoquinolin-6-yl}-N-(4-hydroxyphenyl)-1,2-dimethyl-1H-pyrrole-3-carboxamide] | 4.6 | 0.0265 | 0.0058
3 | 2.3 | 17.7 | 0.35 | 0.13 | 4.2 | 0.6 | 0.17 | 0.32 | – | – | – | Cc1c(N(C(=O)c2cc(-c3cc4c(cc3C(=O)N3Cc5ccccc5C[C@H]3CN3CCCCC3)CN(C(=O)Cc3ccc(OCCN5CCOCC5)cc3F)CC4)n3ccccc23)c2ccc(O)cc2)cc(C#N)n1C [Example 136, N-(5-cyano-1,2-dimethyl-pyrrol-3-yl)-3-[2-[2-[2-fluoro-4-(2-morpholinoethoxy)phenyl]acetyl]-7-[(3S)-3-(1-piperidylmethyl)-3,4-dihydro-1H-isoquinoline-2-carbonyl]-3,4-dihydro-1H-isoquinolin-6-yl]-N-(4-hydroxyphenyl)indolizine-1-carboxamide] | 3.22 | 0.0118 | 0.0037
4 | 1.1 | 39.3 | 0.07 | 0.03 | 5.4 | 0.2 | 0.14 | 0.11 | – | – | – | Cc1c(N(C(=O)c2cc(-c3cc4c(cc3C(=O)N3Cc5ccccc5C[C@H]3CN3CC5(CC5)C3)CN(C(=O)Cc3ccc(OCCN5CCOCC5)cc3F)CC4)n(C)c2C)c2ccc(O)cc2)cc(C#N)n1C [Example 145, 5-{7-[(3S)-3-({5-azaspiro[2.3]hexan-5-yl}methyl)-1,2,3,4-tetrahydroisoquinoline-2-carbonyl]-2-(2-{2-fluoro-4-[2-(morpholin-4-yl)ethoxy]phenyl}acetyl)-1,2,3,4-tetrahydroisoquinolin-6-yl}-N-(5-cyano-1,2-dimethyl-1H-pyrrol-3-yl)-N-(4-hydroxyphenyl)-1,2-dimethyl-1H-pyrrole-3-carboxamide] | 5.2203 | 0.154 | 0.0295
5 | 3.5 | 81.4 | 0.15 | 0.04 | 7.2 | 0.3 | 0.27 | 0.12 | – | – | – | Cc1c(N(C(=O)c2cc(-c3cc4c(cc3C(=O)N3Cc5ccccc5C[C@H]3CN3CCC(C)(C)C3)CN(C(=O)Cc3ccc(OCCN5CCOCC5)cc3F)CC4)n(C)c2C)c2ccc(O)cc2)cc(C#N)n1C [Example 146, N-(5-cyano-1,2-dimethylpyrrol-3-yl)-5-(7-{[(3S)-3-[(3,3-dimethylpyrrolidin-1-yl)methyl]-3,4-dihydro-1H-isoquinolin-2-yl]carbonyl}-2-(2-{2-fluoro-4-[2-(morpholin-4-yl)ethoxy]phenyl}acetyl)-3,4-dihydro-1H-isoquinolin-6-yl)-N-(4-hydroxyphenyl)-1,2-dimethylpyrrole-3-carboxamide] | 5.8167 | 0.0349 | 0.006
6 | 1.5 | 25.0 | 0.15 | 0.06 | 4.2 | 0.3 | 0.29 | 0.18 | – | – | – | Cc1c(N(C(=O)c2cc(-c3cc4c(cc3C(=O)N3Cc5ccccc5C[C@H]3CN3CCCCC3)CN(C(=O)Cc3ccc(OCCN5CCOCC5(C)C)cc3)CC4)n(C)c2C)c2ccc(O)cc2)cc(C#N)n1C [Example 148, N-(5-cyano-1,2-dimethylpyrrol-3-yl)-5-[2-(2-{4-[2-(3,3-dimethylmorpholin-4-yl)ethoxy]phenyl}acetyl)-7-{[(3S)-3-(piperidin-1-ylmethyl)-3,4-dihydro-1H-isoquinolin-2-yl]carbonyl}-3,4-dihydro-1H-isoquinolin-6-yl]-N-(4-hydroxyphenyl)-1,2-dimethylpyrrole-3-carboxamide] | 4.9286 | 0.0345 | 0.007
7 | 3.9 | 24.4 | 0.36 | 0.16 | 6.9 | 1.1 | 0.64 | 0.41 | – | – | – | Cc1c(N(C(=O)c2cc(-c3cc4c(cc3C(=O)N3Cc5ccccc5C[C@H]3CN(C(C)C)C(C)C)CN(C(=O)Cc3ccc(OCCN5CCOCC5)cc3F)CC4)n(C)c2C)c2ccc(O)cc2)cc(C#N)n1C [Example 152, N-(5-cyano-1,2-dimethylpyrrol-3-yl)-5-(7-{[(3S)-3-[(diisopropylamino)methyl]-3,4-dihydro-1H-isoquinolin-2-yl]carbonyl}-2-(2-{2-fluoro-4-[2-(morpholin-4-yl)ethoxy]phenyl}acetyl)-3,4-dihydro-1H-isoquinolin-6-yl)-N-(4-hydroxyphenyl)-1,2-dimethylpyrrole-3-carboxamide] | 3.5238 | 0.037 | 0.0105
8 | 14.9 | – | 0.2 | – | – | 0.84 | 1.6 | 0.21 | 248.3 | 0.06 | 14 | Cc1c(C(=O)N(c2ccc(O)cc2)c2cnn(C(F)F)c2)cc(-c2cc3c(cc2C(=O)N2Cc4ccccc4C[C@H]2C)CN(C(=O)Cc2ccc(OCCN4CCOCC4)cc2)CC3)n1C [Example 228, N-[1-(difluoromethyl)pyrazol-4-yl]-5-[2-[2-[4-(2-morpholinoethoxy)phenyl]acetyl]-7-[(3R)-3-methyl-3,4-dihydro-1H-isoquinoline-2-carbonyl]-3,4-dihydro-1H-isoquinolin-6-yl]-N-(4-hydroxyphenyl)-1,2-dimethyl-pyrrole-3-carboxamide] | 11.0 | 0.161 | 0.0146
9 | 1.8 | – | 0.1 | – | – | 0.22 | 0.164 | 0.11 | 45 | 0.04 | 5.5 | Cc1c(N(C(=O)c2cc(-c3cc4c(cc3C(=O)N3Cc5ccccc5C[C@H]3CN3CCCCC3)CN(C(=O)Cc3ccc(OCCN5CCOCC5)cc3F)CC4)n(C)c2C)c2ccc(O)cc2)cc(C#N)n1C [Example 229] | 4.4 | 0.0222 | 0.00502
